From article PMC7665123, “In Vitro Anti-Inflammatory Activity in Arthritic Synoviocytes of A. brachypoda Root Extracts and Its Unusual Dimeric Flavonoids” (Molecules, 2020)

Columns and labels:
[1] = test system: IL-6 release from IL-1β activated HFLS; test: IL-6 release by ELISA in IL-1β activated human fibroblast-like synoviocytes; type: cell-based; details: for inhibition at 25 µM: compounds at 25 µM = 13 µg/mL, read-out: Inhibition of IL-6 release at highest non-toxic concentration (%); for IC50: isolated compounds; for Fold higher activity (IC50) compared to compound 1 / DCMAB: IC50 comparison
Method: Hip synovial membrane was collected from three male adult patients with clinical osteoarthritis (OA) at the time of hip replacement surgery. […] Once collected, tissue samples were processed, according to previously described protocols. […] After overnight culture, non-adherent cells were removed. At confluence, cells were trypsinized and passaged to 75 cm^2 culture flasks (Corning, NY, USA) in complete medium containing 10% fetal bovine serum. […] All cellular assays were performed from passage 3 to 9. Experiments were conducted twice per donor (n = 6).
All tested compounds were dissolved in a dimethyl sulfoxide (DMSO) stock solution and further diluted in culture medium. Final concentration of DMSO in vehicle of tested concentrations was 0.01%. After 1 h incubation, cells were activated by addition of IL-1β (1 µg/mL) (R&D Systems, Bio-Techne, Abingdon, UK) with subsequent incubation for 23 h. All supernatants were kept at −80 °C, before further testing. Remaining adherent cells were tested for viability using the cell proliferation reagent WST-1 (Roche, Basel, Switzerland), according to the supplier instructions. Pro-inflammatory cytokine IL-6 release in cell supernatant was assessed by ELISA. […] All samples were diluted 90 times. Experiments were conducted twice per donor (n = 6).
In this study, data are presented as mean values ± standard deviation (S.D.). All analyses were performed using GraphPad Prism 8.3 software. IC50 values were determined using a nonlinear fitting of a log (inhibitor concentration) vs response variable slope for each donor’s data set. Consequent values were then averaged. After confirming the data normal distribution and homogeneity of variances (Brown-Forsythe and Welch; Shapiro-Wilk, D’Agostino-Pearson and Anderson-Darling), statistical analysis was performed using a two-way ANOVA with a Bonferroni multiple comparisons test. Significance was determined at alpha level 0.05. Significance values represented are * p < 0.05, ** p < 0.009 and ns for non-significance.

[2] = test system: human fibroblast like synoviocytes (HFLS); test: In vitro cytotoxicity (WST-1 cell viability) in HFLS; type: cell-based; details: 24 h, tested 3-100 µM
Method: Hip synovial membrane was collected from three male adult patients with clinical osteoarthritis (OA) at the time of hip replacement surgery. This protocol was conducted under the approval of the local Ethics Committee (CCER, Geneva, Switzerland) (Authorization #2017-02234) and with informed and consenting patients. Once collected, tissue samples were processed, according to previously described protocols. Briefly, samples were finely minced and digested for 3 h (37 °C, 5% CO2 incubation) in a 3 mg/mL collagenase IX-RPMI 1640 solution. After centrifugation (200× g) and supernatant removal, the resuspended pellet was cultured (37 °C, 5% CO2) in medium containing RPMI 1640, M199 (1:1), 1% penicillin/streptomycin (100 IU/mL:100 µg/mL), 2 mM L-glutamine and 20% fetal bovine serum. After overnight culture, non-adherent cells were removed. At confluence, cells were trypsinized and passaged to 75 cm^2 culture flasks (Corning, NY, USA) in complete medium containing 10% fetal bovine serum. A double control was performed to confirm presence of HFLS after isolation: visual morphology evaluation (Figure S3) and flow cytometry with synoviocyte specific surface markers ([…] and VCAM-1). […] All cellular assays were performed from passage 3 to 9. Experiments were conducted twice per donor (n = 6).
Confluent HFLS cells (25,000 cells/well) were treated in a 96-well plate with compounds 1, 2, and 3 (3 µM, 6 µM, 12 µM, 25 µM, 50 µM, and 100 µM), HEAB and DCMAB (increasing concentrations from 3 to 100 µg/mL), or control vehicle for 1 h. All tested compounds were dissolved in a dimethyl sulfoxide (DMSO) stock solution and further diluted in culture medium. Final concentration of DMSO in vehicle of tested concentrations was 0.01%. After 1 h incubation, cells were activated by addition of IL-1β (1 µg/mL) (R&D Systems, Bio-Techne, Abingdon, UK) with subsequent incubation for 23 h. All supernatants were kept at −80 °C, before further testing. […] Pro-inflammatory cytokine IL-6 release in cell supernatant was assessed by ELISA. […]

[3] = Homo sapiens, IL-1β activated HFLS, 24 h
[4] = Homo sapiens, IL-1β activated HFLS, 24 h, n = 6
[5] = Homo sapiens, µM values transformed into µg/mL

SMILES | inhibition at 50 µM ([1]; Homo sapiens, 50 µM, non-significant) [%] | inhibition at 25 µM [1, 3] [%] | IC50 [1, 4] [µM] | IC50 [1, 5] [µg/mL] | Concentration at which cytotoxicity / loss of viability occurs [2] [µM] | Fold higher activity (IC50) compared to compound 1 / DCMAB [1] [fold]
COc1cc(O)cc2c1C(C=Cc1ccc(O)cc1)C1C(c3ccccc3)Oc3cc(O)cc(OC)c3C1O2 (stereo not drawn) [Compound 1, brachydin A] | 24 | 10 ± 11 | 62 ± 2 | 33 ± 2 | 100 | –
COc1ccc(C=CC2c3c(OC)cc(O)cc3OC3c4c(OC)cc(O)cc4OC(c4ccccc4)C23)cc1 (stereo not drawn) [Compound 2, brachydin B] | – | 80 ± 9 | 17 ± 3 | 9 ± 3 | 50 | 3
COc1cc(O)cc2c1C(C=Cc1ccccc1)C1C(c3ccccc3)Oc3cc(O)cc(OC)c3C1O2 (stereo not drawn) [Compound 3, brachydin C] | – | 94 ± 5 | 19 ± 3 | 10 ± 3 | 50 | 3
